In PubChem BioAssay (NCI):
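Where inhibition never reached the appropriate level, the endpoint shown equals the highest concentration tested. Otherwise, values were interpolated linearly from a five-concentration, 48-hour dose response in 96-well plates. TGI: concentration producing complete growth inhibition.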

Legend:
Assay in all cases: NCI tumour cell line growth inhibition, 48 h
786-0 renal = system: 786-0 renal
A549 NSCLC = system: A549 NSCLC
ACHN renal = system: ACHN renal
CCRF-CEM leukemia = system: CCRF-CEM leukemia
COLO 205 colon = system: COLO 205 colon
DLD-1 colon = system: DLD-1 colon
DMS 114 small cell lung = system: DMS 114 small cell lung
DMS 273 small cell lung = system: DMS 273 small cell lung
EKVX NSCLC = system: EKVX NSCLC
HCC-2998 colon = system: HCC-2998 colon
HCT-116 colon = system: HCT-116 colon
HCT-15 colon = system: HCT-15 colon
HL-60(TB) leukemia = system: HL-60(TB) leukemia
HOP-18 NSCLC = system: HOP-18 NSCLC
HOP-62 NSCLC = system: HOP-62 NSCLC
HOP-92 NSCLC = system: HOP-92 NSCLC
HT29 colon = system: HT29 colon
IGROV1 ovarian = system: IGROV1 ovarian
K-562 leukemia = system: K-562 leukemia
KM12 colon = system: KM12 colon
KM20L2 colon = system: KM20L2 colon
LOX IMVI melanoma = system: LOX IMVI melanoma
LXFL 529 NSCLC = system: LXFL 529 NSCLC
M14 melanoma = system: M14 melanoma
M19-MEL melanoma = system: M19-MEL melanoma
MALME-3M melanoma = system: MALME-3M melanoma
MOLT-4 leukemia = system: MOLT-4 leukemia
NCI-H226 lung = system: NCI-H226 lung
NCI-H23 lung = system: NCI-H23 lung
NCI-H460 lung = system: NCI-H460 lung
NCI-H522 lung = system: NCI-H522 lung
OVCAR-3 ovarian = system: OVCAR-3 ovarian
OVCAR-4 ovarian = system: OVCAR-4 ovarian
OVCAR-5 ovarian = system: OVCAR-5 ovarian
OVCAR-8 ovarian = system: OVCAR-8 ovarian
RPMI-8226 leukemia = system: RPMI-8226 leukemia
RXF 393 renal = system: RXF 393 renal
RXF-631 renal = system: RXF-631 renal
SF-295 CNS = system: SF-295 CNS
SF-539 CNS = system: SF-539 CNS
SK-MEL-2 melanoma = system: SK-MEL-2 melanoma
SK-MEL-28 melanoma = system: SK-MEL-28 melanoma
SK-MEL-5 melanoma = system: SK-MEL-5 melanoma
SK-OV-3 ovarian = system: SK-OV-3 ovarian
SN12C renal = system: SN12C renal
SNB-19 CNS = system: SNB-19 CNS
SNB-75 CNS = system: SNB-75 CNS
SNB-78 CNS = system: SNB-78 CNS
SR leukemia = system: SR leukemia
SW-620 colon = system: SW-620 colon
TK-10 renal = system: TK-10 renal
U251 CNS = system: U251 CNS
UACC-257 melanoma = system: UACC-257 melanoma
UACC-62 melanoma = system: UACC-62 melanoma
UO-31 renal = system: UO-31 renal
XF 498 CNS = system: XF 498 CNS

Measured: TGI

O=C1CN(C(=O)c2ccccc2)Cc2[nH]c3ccccc3c21
> 100 µM: all assays above
